From patent US11472805B2, “Tricyclic compounds and their use as phosphodiesterase inhibitors” (Pfizer Inc., priority 2015, dated 2022)
Where two headings read alike, the source gives them in different places.

How the values were obtained:
Type in all cases: biochemical
Human PDE4A3 = Human PDE4A3 (Homo sapiens (Human), UniProt P27815); experiment: PDE4A3 Scintillation Proximity Assay (SPA), inhibition of enzyme activity; details: read-out: Human PDE4A FL
Procedure: (§1) The PDE4A, PDE4B, PDE4C and PDE4D binding affinity for the compounds of the present invention was determined utilizing the following biological assay(s):
(§2) The recombinant Bacmid was isolated and used to transfect insect cells to generate a viral stock. To generate cell paste for purification, insect cells were infected with the virus stock and cells were harvested 72 hours after infection. Insect cell paste was lysed and after centrifugation, the supernatant was batch bound to Ni-NTA agarose (GE Healthcare) and eluted with 250 mM imidazole. This eluate was diluted with FLAG buffer (50 mM Tris HCL pH 7.5, 100 mM NaCl, 5% Glycerol, 1 mM TCEP with protease inhibitors) and batch bound to ant-FLAG M2 agarose (Sigma) overnight at 4° C. The agarose was packed into a column, washed with buffer and eluted with buffer containing elute using 250 ug/ml Flag-peptide. Fractions were analyzed using SDS-PAGE Coomassie blue staining and pooled based on purity. Pooled fractions were chromatographed on a S200 120 ml column (GE Healthcare) in 50 mM Tris HCL pH 7.5, 150 mM NaCl, 10% Glycerol, 2 mM TCEP with protease inhibitors. PDE4A3 fractions were analyzed by SDS-PAGE Coomassie blue staining, pooled based on purity, dialyzed against 50 mM Tris HCL pH 7.5, 100 mM NaCl, 20% Glycerol, 2 mM TCEP, frozen and stored at −80° C.
(§3) The PDE4A3, PDE4B1, PDE4C1 and PDE4D3 assays use the Scintillation Proximity Assay (SPA) technology to measure the inhibition of human recombinant PDE4A1, PDE4B3, PDE4C1, and PDE4D3 enzyme activity by compounds in vitro. The PDE4A1, PDE4B3, PDE4C1, and PDE4D3 assays are run in parallel using identical parameters, except for the concentration of enzyme ([…]). The assays are performed in a 384-well format with 50 uL assay buffer (50 mM TRIS pH7.5; 1.3 mM MgCl2; 0.01% Brij) containing enough PDE4A3, PDE4B1, PDE4C1, and PDE4D to convert ˜20% of substrate (1 μM cAMP consisting of 20 nM 3H-cAMP+[…] cold cAMP) and a range of inhibitors. Reactions are incubated for 30 min at 25° C. The addition of 20 uL of 8 mg/ml yitrium silicate SPA beads (Perkin Elmer) stops the reaction. The plates are sealed (TopSeal, Perkin Elmer) and the beads are allowed to settle for 8 hrs, after which they are read on the Trilux Microbeta overnight.

Human PDE4B1 = Human PDE4B1 (Homo sapiens (Human), UniProt Q07343, S133E/S654A/S659A/S661A); experiment: PDE4B1 Scintillation Proximity Assay (SPA), inhibition of enzyme activity; details: read-out: Human PDE4B FL
Procedure: as §1
The recombinant Bacmid was isolated and used to transfect insect cells to generate a viral stock. To generate cell paste for purification, insect cells were infected with the virus stock and cells were harvested 72 hours after infection as described in Seeger, T. F. et al., Brain Research 985 (2003) 113-126. Insect cell paste was lysed and after centrifugation, the supernatant was chromatographed on Ni-NTA agarose (Qiagen) as described in Seeger, T. F. et al., Brain Research 985 (2003) 113-126. Ni-NTA agarose eluting fractions containing PDE4 were pooled, diluted with Q buffer A (20 mM Tris HCl pH 8, 5% glycerol, 1 mM TCEP) to reduce NaCl to ˜100 mM and loaded on a Source 15Q (GE Healthcare) column. After washing with Q buffer A/10% buffer B to baseline, PDE4D was eluted with a gradient from 10% to 60% of Buffer B (20 mM Tris HCl pH 8, 1 M NaCl, 5% glycerol, 1 mM TCEP). PDE4D fractions were analyzed by SDS-PAGE Coomassie blue staining, pooled based on purity, frozen and stored at −80° C.
as §3

Human PDE4C1 = Human PDE4C1 (Homo sapiens (Human), UniProt Q08493); experiment: PDE4C1 Scintillation Proximity Assay (SPA), inhibition of enzyme activity; details: read-out: Human PDE4C FL
Procedure: as §1
as §2, with “PDE4C1” for “PDE4A3”
as §3

human PDE4D3 = human PDE4D3 (Homo sapiens (Human), UniProt Q08499); experiment: PDE4D3 Scintillation Proximity Assay (SPA), inhibition of enzyme activity; details: read-out: Human PDE4D FL
Procedure: as §1
A portion of the human PDE4D3 coding sequence (amino acids 50 to 672 from the sequence with accession number Q08499-2) was cloned into the baculovirus expression vector pFastBac (Invitrogen) engineered to include a C-terminal His6 affinity tag to aid in purification as described in Seeger, T. F. et al., Brain Research 985 (2003) 113-126. The recombinant Bacmid was isolated and used to transfect insect cells to generate a viral stock. To generate cell paste for purification, insect cells were infected and cells were harvested 72 hours after infection. Insect cell paste was lysed and after centrifugation, the supernatant was chromatographed on Ni-NTA agarose (Qiagen) as described in Seeger, T. F. et al., Brain Research 985 (2003) 113-126. Ni-NTA agarose eluting fractions containing PDE4 were pooled, diluted with Q Buffer A (50 mM Tris HCl pH 8, 4% glycerol, 100 mM NaCl, 1 mM TCEP, Protease inhibitors EDTA-free (Roche)) to reduce NaCl to ˜200 mM, and loaded on a Q Sepharose (GE Healthcare) column. After washing with Q buffer A to baseline, PDE4D was eluted with a gradient from 10% to 60% of Buffer B (50 mM Tris HCl pH 8, 1 M NaCl, 4% glycerol, 1 mM TCEP). PDE4D fractions were analyzed by SDS-PAGE Coomassie blue staining, pooled based on purity, frozen and stored at −80° C.
as §3

[1] = Table 9, geometric mean of 2-9 determinations unless otherwise indicated
[2] = Table 10, geometric mean of 2-9 determinations unless otherwise indicated

Human PDE4C1, sequence (Q08493 2-712): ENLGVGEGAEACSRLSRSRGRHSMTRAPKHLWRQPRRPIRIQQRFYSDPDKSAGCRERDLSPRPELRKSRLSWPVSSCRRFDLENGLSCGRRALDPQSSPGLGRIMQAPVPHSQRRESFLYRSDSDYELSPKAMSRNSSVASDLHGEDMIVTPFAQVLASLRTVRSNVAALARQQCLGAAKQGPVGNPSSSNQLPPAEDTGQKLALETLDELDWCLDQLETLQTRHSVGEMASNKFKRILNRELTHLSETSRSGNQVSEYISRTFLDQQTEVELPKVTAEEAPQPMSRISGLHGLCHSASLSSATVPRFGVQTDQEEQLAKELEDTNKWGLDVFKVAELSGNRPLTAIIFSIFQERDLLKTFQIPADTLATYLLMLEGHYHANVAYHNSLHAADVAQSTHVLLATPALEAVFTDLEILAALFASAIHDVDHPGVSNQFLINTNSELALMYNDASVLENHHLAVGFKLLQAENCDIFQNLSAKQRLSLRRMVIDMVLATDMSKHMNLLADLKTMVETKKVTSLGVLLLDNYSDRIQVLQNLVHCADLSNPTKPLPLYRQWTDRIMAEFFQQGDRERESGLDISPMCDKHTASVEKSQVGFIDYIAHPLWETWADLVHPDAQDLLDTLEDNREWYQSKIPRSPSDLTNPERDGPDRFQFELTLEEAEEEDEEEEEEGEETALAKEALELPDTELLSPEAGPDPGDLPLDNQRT
Human PDE4A3, sequence (P27815 other isoform, or with tags, fused parts or gaps): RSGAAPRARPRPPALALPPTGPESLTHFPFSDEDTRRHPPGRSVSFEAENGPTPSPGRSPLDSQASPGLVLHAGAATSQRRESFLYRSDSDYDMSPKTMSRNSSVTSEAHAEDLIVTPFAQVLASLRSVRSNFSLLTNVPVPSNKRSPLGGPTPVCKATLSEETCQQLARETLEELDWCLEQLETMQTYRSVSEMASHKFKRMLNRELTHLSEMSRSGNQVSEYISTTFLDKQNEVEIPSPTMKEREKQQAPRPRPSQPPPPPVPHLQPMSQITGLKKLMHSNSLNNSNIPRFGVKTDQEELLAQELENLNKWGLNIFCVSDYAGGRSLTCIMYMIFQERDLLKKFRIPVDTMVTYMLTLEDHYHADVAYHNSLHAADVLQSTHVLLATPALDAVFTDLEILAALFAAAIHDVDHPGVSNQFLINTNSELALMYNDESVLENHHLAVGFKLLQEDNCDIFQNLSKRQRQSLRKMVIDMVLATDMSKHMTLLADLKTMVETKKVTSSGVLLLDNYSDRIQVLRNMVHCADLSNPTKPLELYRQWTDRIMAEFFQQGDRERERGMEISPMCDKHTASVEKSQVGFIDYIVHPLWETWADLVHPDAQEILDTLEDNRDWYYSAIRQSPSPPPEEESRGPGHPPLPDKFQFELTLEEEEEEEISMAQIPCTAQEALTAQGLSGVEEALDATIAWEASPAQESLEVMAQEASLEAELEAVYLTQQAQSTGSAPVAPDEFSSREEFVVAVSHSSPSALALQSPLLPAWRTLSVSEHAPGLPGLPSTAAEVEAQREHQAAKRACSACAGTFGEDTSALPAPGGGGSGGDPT
human PDE4D3, sequence (Q08499 186-808): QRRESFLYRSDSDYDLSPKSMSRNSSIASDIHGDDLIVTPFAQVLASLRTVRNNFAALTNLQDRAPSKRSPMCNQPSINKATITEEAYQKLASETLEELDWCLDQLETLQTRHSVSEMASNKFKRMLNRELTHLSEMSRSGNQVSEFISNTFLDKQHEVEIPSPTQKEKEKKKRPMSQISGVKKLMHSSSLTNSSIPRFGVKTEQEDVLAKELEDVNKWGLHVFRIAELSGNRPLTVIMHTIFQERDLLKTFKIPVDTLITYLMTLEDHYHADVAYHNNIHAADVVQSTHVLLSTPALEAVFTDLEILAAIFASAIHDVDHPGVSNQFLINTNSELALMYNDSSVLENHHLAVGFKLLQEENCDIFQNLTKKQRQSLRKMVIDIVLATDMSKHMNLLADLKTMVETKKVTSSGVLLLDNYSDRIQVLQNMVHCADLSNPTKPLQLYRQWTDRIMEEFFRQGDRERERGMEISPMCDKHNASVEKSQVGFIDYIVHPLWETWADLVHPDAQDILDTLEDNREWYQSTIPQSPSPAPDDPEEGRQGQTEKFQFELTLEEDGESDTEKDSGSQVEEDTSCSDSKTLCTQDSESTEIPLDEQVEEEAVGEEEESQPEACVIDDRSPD
Human PDE4B1, sequence (Q07343 122-736 S133E/S654A/S659A/S661A): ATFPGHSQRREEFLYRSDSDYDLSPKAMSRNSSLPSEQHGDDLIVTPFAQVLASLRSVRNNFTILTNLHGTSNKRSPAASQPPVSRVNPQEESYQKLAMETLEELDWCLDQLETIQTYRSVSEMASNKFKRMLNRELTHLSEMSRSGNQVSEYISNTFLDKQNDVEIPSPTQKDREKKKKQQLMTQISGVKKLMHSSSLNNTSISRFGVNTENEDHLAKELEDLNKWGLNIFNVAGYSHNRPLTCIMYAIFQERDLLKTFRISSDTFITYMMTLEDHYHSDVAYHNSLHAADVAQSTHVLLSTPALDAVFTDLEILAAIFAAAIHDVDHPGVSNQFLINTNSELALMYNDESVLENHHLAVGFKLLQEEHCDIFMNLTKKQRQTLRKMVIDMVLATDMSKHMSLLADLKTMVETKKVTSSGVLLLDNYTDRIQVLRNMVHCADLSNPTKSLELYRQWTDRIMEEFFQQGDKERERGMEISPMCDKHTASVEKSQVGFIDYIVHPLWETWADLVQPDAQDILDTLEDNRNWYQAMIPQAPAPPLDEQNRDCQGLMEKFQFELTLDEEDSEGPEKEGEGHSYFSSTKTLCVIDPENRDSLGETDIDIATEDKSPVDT

IC50 (Human PDE4A3; [1])	IC50 (Human PDE4B1; [1])	IC50 (Human PDE4C1; [1])	IC50 (human PDE4D3; [1])	IC50 (Human PDE4A3; [2])	IC50 (Human PDE4B1; [2])	IC50 (Human PDE4C1; [2])	IC50 (human PDE4D3; [2])	SMILES
0.00887 µM	0.0163 µM	0.0243 µM	0.689 µM					O=C1c2c(-c3ccc(Cl)cc3)c3ncccc3n2CC2CCN12 (single isomer, unassigned) [Example 69]
				15.5 µM	> 25.8 µM	> 30 µM	> 30 µM	Cc1cccnc1-c1c2n(c3cccnc13)CCN(C1CC1)C2=O [Example 84, 8-Cyclopropyl-10-(3-methylpyridin-2-yl)-7,8-dihydropyrido[2′,3′:4,5]pyrrolo[1,2-a]pyrazin-9(6H)-one]
0.00747 µM	0.0113 µM	0.0202 µM	0.872 µM					N#Cc1ccc(-c2c3n(c4cccnc24)CCN(C2CC2)C3=O)c(F)c1 [Example 22, 4-(8-Cyclopropyl-9-oxo-6,7,8,9-tetrahydropyrido[2′,3′:4,5]pyrrolo[1,2-a]pyrazin-10-yl)-3-fluorobenzonitrile]
0.0867 µM	0.0261 µM	0.694 µM	2.01 µM					O=C1c2c(-c3cncc(Cl)c3)c3ncccc3n2CCN1C1CC1 [Example 51, 10-(5-Chloropyridin-3-yl)-8-cyclopropyl-7,8-dihydropyrido[2′,3′:4,5]pyrrolo[1,2-a]pyrazin-9(6H)-one]
< 0.0003 µM	< 0.00052 µM	< 0.00057 µM	0.0287 µM					C[C@H]1Cn2c(c(-c3ccc(Cl)cc3)c3ncccc32)C(=O)N1C1CC1 [Example 11, (7S)-10-(4-Chlorophenyl)-8-cyclopropyl-7-methyl-7,8-dihydropyrido[2′,3′: 4,5]pyrrolo[1,2-a]pyrazin-9(6H)-one]
0.001 µM	< 0.00072 µM	0.00316 µM	0.0198 µM					O=C1c2c(-c3cccc(Cl)c3)c3ncccc3n2CCN1C1CC1 [Example 48, 10-(3-Chlorophenyl)-8-cyclopropyl-7,8-dihydropyrido[2′,3′:4,5]pyrrolo[1,2-a]pyrazin-9(6H)-one]
0.00466 µM	< 0.00081 µM	0.017 µM	0.0363 µM					N#Cc1ccc(-c2c3n(c4cccnc24)CCN(C2CC2)C3=O)cc1F [Example 4, 4-(8-Cyclopropyl-9-oxo-6,7,8,9-tetrahydropyrido[2′,3′:4,5]pyrrolo[1,2-a]pyrazin-10-yl)-2-fluorobenzonitrile]
0.026 µM	0.0185 µM	0.026 µM	0.538 µM					O=C1c2c(-c3ccc(Cl)cc3)c3ncccc3n2CC2CCN12 (single isomer, unassigned) [Example 68]
0.00126 µM	0.00238 µM	0.00922 µM	0.13 µM					O=C1c2c(-c3cccc(F)c3)c3ncccc3n2CCN1C1CC1 [Example 41, 8-Cyclopropyl-10-(3-fluorophenyl)-7,8-dihydropyrido[2′,3′:4,5]pyrrolo[1,2-a]pyrazin-9(6H)-one]
0.00412 µM	0.0102 µM	0.0244 µM	0.345 µM					O=C1c2c(-c3ccc(Cl)cc3)c3nccnc3n2CCN1C1CC1 [Example 18, 10-(4-Chlorophenyl)-8-cyclopropyl-7,8-dihydropyrrolo[1,2-a:4,5-b′]dipyrazin-9(6H)-one]
0.0126 µM	0.024 µM	0.0626 µM	0.624 µM					O=C1c2c(-c3ccc4ncnn4c3)c3ncccc3n2CCN1C1CC1 [Example 58, 8-Cyclopropyl-10-([1,2,4]triazolo[1,5-a]pyridin-6-yl)-7,8-dihydropyrido[2′,3′:4,5]pyrrolo[1,2-a]pyrazin-9(6H)-one]
0.00493 µM	0.00609 µM	0.0112 µM	0.497 µM					Cc1ccc(-c2c3n(c4cccnc24)CCN(C2CC2)C3=O)cc1C [Example 33, 8-Cyclopropyl-10-(3,4-dimethylphenyl)-7,8-dihydropyrido[2′,3′:4,5]pyrrolo[1,2-a]pyrazin-9(6H)-one]
				11.1 µM	18.5 µM	4.82 µM	> 30 µM	Cc1csc(-c2c3n(c4cccnc24)CCN(C2CC2)C3=O)n1 [Example 82, 8-Cyclopropyl-10-(4-methylthiazol-2-yl)-7,8-dihydropyrido[2′,3′:4,5]pyrrolo[1,2-a]pyrazin-9(6H)-one]
0.00098 µM	< 0.00064 µM	0.00288 µM	0.0233 µM					N#Cc1cc(-c2c3n(c4cccnc24)CCN(C2CC2)C3=O)ccc1Cl [Example 34, 2-Chloro-5-(8-cyclopropyl-9-oxo-6,7,8,9-tetrahydropyrido[2′,3′:4,5]pyrrolo[1,2-a]pyrazin-10-yl)benzonitrile]
0.00353 µM	0.00436 µM	0.0151 µM	0.0904 µM					N#Cc1ccc(-c2c3n(c4scnc24)CCN(C2CC2)C3=O)cc1F [Example 72, 4-(7-Cyclopropyl-8-oxo-5,6,7,8-tetrahydro[1,3]thiazolo[4′,5′:4,5]pyrrolo[1,2-a]pyrazin-9-yl)-2-fluorobenzonitrile]
0.00126 µM	0.00399 µM	0.0117 µM	0.286 µM					O=C1c2c(-c3ccc(Cl)cc3)c3c(n2CCN1C1CC1)CCCO3 [Example 75, 10-(4-Chlorophenyl)-8-cyclopropyl-3,4,7,8-tetrahydro-2H-pyrano[2′,3′:4,5]pyrrolo[1,2-a]pyrazin-9(6H)-one]
